The source of these data is PubChem BioAssay AID602296 (Broad Institute, 2012).

Each structure is given as a SMILES string. Results filed as inconclusive are left out. Active and inactive are the calls of the source.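 How the source made its calls: active means fitted activation curve crossing 40% at a concentration no higher than the sample's top valid tested dose; inconclusive means flat fitted curve at 30% to 70% activation, or poor curve fit; inactive means signal decrease, flat curve within 30%, or the rest.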

For the experiment, the system named is NIH3T3-HGL HSF-1 response element luciferase, 48 h. As to the kind of experiment: HSF-1 reporter activators over prolonged exposure, confirmation, cell-based, mouse, luciferase, cherry-pick, dose (AID 602296).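 Further: test compounds applied by themselves with no MG132 co-treatment.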

As for `O[C@@H]1C2CCCC1[C@]1(O)CCCCC1C2` (stereo not given in full), the AC40 was > 26 µM (inactive).

For `COc1ccc(C(=O)Cn2c(C(=O)/C=C/c3ccccc3)nc3ccccc32)cc1`, the AC40 was 2.39 µM.

In the case of `CCC1(c2ccccc2)NC(=O)N(CC(=O)NCc2ccccc2OC)C1=O` (stereo not given), the AC40 is > 26 µM (inactive).

As for `O=C1c2ccccc2C(=O)N1CC(O)COc1ccc(Br)cc1` (stereo not given), the AC40 was 13.7 µM.

Turning to `Cc1cccc(N2C(=O)C(O)=C(C(=O)c3cccs3)C2c2ccc(C(C)C)cc2)n1` (stereo not given), the AC40 was 9.04 µM.

Turning to `CCS(=O)(=O)C(=C1NCCO1)S(=O)(=O)CC`, the AC40 is > 26 µM (inactive).

As for `Cc1ccc(-c2nn(-c3cc(Cl)ccc3[N+](=O)[O-])c(=O)c3ccccc23)cc1`, the AC40 was > 26 µM (inactive).

Turning to `O=c1[nH][nH]c(-c2ccccc2O)c1C(C[N+](=O)[O-])c1ccccc1` (stereo not given), the AC40 is 16.9 µM.

With `CC(CCc1ccccc1)NC(=O)CN1CCc2ccccc2C1` (stereo not given), the AC40 was > 26 µM (inactive).

Consider `CC1=Nc2cc(C(=O)O)ccc2Sc2c(C)ccc(C)c21`, for which the AC40 is > 26 µM (inactive).

In the case of `O=C(CSc1nc2ccccc2c2nc3ccccc3n12)NCc1ccco1`, the AC40 was 10.1 µM.

With `COc1ccc(-c2nc(C#N)c(N3CCCCC3)o2)cc1`, the AC40 is > 26 µM (inactive).

As for `O=C(c1ccccc1Br)N1CCN(c2ccccc2)CC1`, the AC40 was > 26 µM (inactive).

Regarding `O=C(N/N=C/c1ccc(-c2cccc([N+](=O)[O-])c2)o1)c1ccccc1O`, the AC40 was > 26 µM (inactive).

As for `Cc1onc(-c2ccccc2)c1NC(=O)N(CCC#N)Cc1ccccc1`, the AC40 is > 26 µM (inactive).

For the compound `O=c1[nH]c2c(s1)C=Nc1ccccc1N2`, the AC40 is 4.98 µM.

With `Cc1ccc(-c2csc(NC(=O)c3cccc([N+](=O)[O-])c3)n2)cc1`, the AC40 was > 26 µM (inactive).

In the case of `COc1cc(CNCC(O)c2ccccc2)ccc1OCc1ccc(Cl)nc1` (stereo not given), the AC40 was > 26 µM (inactive).

For the compound `O=C(CC(c1ccco1)S(=O)(=O)c1ccccc1)c1ccc(F)cc1` (stereo not given), the AC40 is > 26 µM (inactive).

As for `COc1ccc(C2(C)NC(=O)N(CC3CCCCC3)C2=O)cc1` (stereo not given), the AC40 is > 26 µM (inactive).

Regarding `CC(=O)NC(=O)NC1OC(=O)C(Cl)=C1Cl` (stereo not given), the AC40 was > 26 µM (inactive).

For `Cc1ccc(NC2=NC3(CCCC3)N=C(N)N2)c(C)c1`, the AC40 was > 26 µM (inactive).

For `Cc1c(/C=N/NC(=O)c2ccc(Br)o2)cnn1C`, the AC40 is 22.4 µM.

On to `Cn1c(=O)c(/C=C/c2ccc(F)cc2)nc2ccccc21`, for which the AC40 was 1.99 µM.

`c1ccc(COc2ccccc2CNC2CCCC2)cc1`: the AC40 was > 26 µM (inactive).

Consider `O=C(NC1CCCCC1)C1CCCN1S(=O)(=O)c1cccc2nsnc12` (stereo not given), for which the AC40 was > 26 µM (inactive).

On to `COCCCNC(=O)CCn1c(=O)c2ccccc2n(CC(=O)Nc2cc(Cl)ccc2C)c1=O`, for which the AC40 is > 26 µM (inactive).

Take `Cc1ccc(NN2C(=O)C=C(c3ccccc3)C2=O)cc1`: the AC40 was 7.33 µM.

Regarding `C/C(=N\NC(=O)c1ccoc1C)c1cccc2ccccc12`, the AC40 is 10.2 µM.

Turning to `Cc1nc2ccc(Br)cc2c(=O)n1Cc1cccs1`, the AC40 was > 26 µM (inactive).

In the case of `Cc1cc(-c2nc3ncccc3o2)ccc1NC(=S)NC(=O)C(C)C`, the AC40 was 7.32 µM.

In the case of `Cn1c(=O)oc2cc(S(=O)(=O)N3CCCCC3)ccc21`, the AC40 was > 26 µM (inactive).

Consider `C=CCN1C(=O)C(Cc2ccc(OCC)cc2)SC1=Nc1ccc(C(=O)O)cc1` (stereo not given), for which the AC40 is > 26 µM (inactive).

In the case of `O=C(Nc1cccn2ncnc12)C(F)(F)F`, the AC40 was > 26 µM (inactive).

On to `COCCNC(=S)N/N=C/c1ccc(N2CCOCC2)cc1`, for which the AC40 is > 26 µM (inactive).

In the case of `O=C(O)CSc1c(-c2ccccc2)[nH]c2ccccc12`, the AC40 was > 26 µM (inactive).

As to `Cc1ccc(-c2c3c(=O)n(C)c(=O)n(C)c3cn2-n2cnnc2)cc1`, the AC40 is 15.1 µM.

Turning to `COc1ccc(NC(=O)NNC(=O)c2cc3occc3n2C)c(OC)c1`, the AC40 was > 26 µM (inactive).

As for `O=[N+]([O-])c1cc([N+](=O)[O-])c(Oc2c(F)cccc2F)cc1NN1CCCCC1`, the AC40 is > 26 µM (inactive).

For `Cc1ccccc1CC1(CO)CCCN(C(=O)c2ccccc2Cl)C1` (stereo not given), the AC40 was > 26 µM (inactive).

`CCOC(=S)SCC(=O)Nc1nc(C)c(C)s1`: the AC40 was 12.4 µM.

For the compound `Cc1cc(C)n(CC(O)COc2ccc(Cl)cc2Cl)n1` (stereo not given), the AC40 was 5.12 µM.

On to `CC(CC#CCN1CCOCC1)OCCC#N` (stereo not given), for which the AC40 is > 26 µM (inactive).

As for `CCN(/N=C/C=C/c1ccccc1)c1cc(=O)n(C)c(=O)[nH]1`, the AC40 is > 26 µM (inactive).

With `COc1cccc(-c2nn(-c3ccccc3)cc2C(=O)n2nnc3ccccc32)c1`, the AC40 was > 26 µM (inactive).

As to `COc1ccccc1C(=O)CSc1nnc(-c2ccco2)o1`, the AC40 is 11.7 µM.

Take `O=C(O)C(Cc1ccccc1)N1C(=O)c2c(Cl)c(Cl)c(Cl)c(Cl)c2C1=O` (stereo not given): the AC40 is > 12 µM (inactive).

For the compound `COc1ccc2nc(SC)c(C#N)cc2c1`, the AC40 is > 26 µM (inactive).

For the compound `CCOC(=O)N1CCC(NS(=O)(=O)c2ccc3c(c2)C(C)(C)C(=O)N3C)CC1`, the AC40 is > 26 µM (inactive).

`ClC(Cl)c1nnc(-c2ccccc2)c(-c2c[nH]c3ccccc23)n1`: the AC40 was > 26 µM (inactive).

With `CC(C)(C)NC(=O)c1cccc(NC(=O)CSc2ccc(Cl)cc2)c1`, the AC40 was > 26 µM (inactive).

`O=C(/C=C/Sc1ccccc1)c1ccc(Cl)cc1`: the AC40 is 4.33 µM.

Consider `Brc1cnc2nc(SC/C=C/c3ccccc3)[nH]c2c1`, for which the AC40 is 20.8 µM.

As for `O=c1/c(=C/c2ccccc2)sc2nnc(-c3cccs3)n12`, the AC40 is > 26 µM (inactive).

In the case of `COC1(OC)C(/C=C/c2ccc(Cl)cc2)C(C#N)(C#N)C1(OC)OC` (stereo not given), the AC40 is 16.9 µM.

On to `C=CCn1c(O)c(C(CC)=Nc2ccc3c(c2)CCC3)c(=O)[nH]c1=O`, for which the AC40 is > 12 µM (inactive).

As to `COc1ccc(/C=C/C(=O)OC2CCCN(C)C2)cc1` (stereo not given), the AC40 is 12.6 µM.

Take `O=c1[nH]c2ccc(S(=O)(=O)Nc3ccc(-c4nnc5n4CCCCC5)cc3)cc2o1`: the AC40 is > 26 µM (inactive).

With `CCOC(=O)c1cccc(NC(=O)Cn2c(CC(=O)NC)nc3ccccc32)c1`, the AC40 is > 26 µM (inactive).

Consider `CCOc1cccc(/C=C/c2ccc3cccc(O)c3n2)c1OC`, for which the AC40 is > 26 µM (inactive).

Turning to `CCOc1ccc(CN(C)C(=O)CNC(=O)c2ccc3ccccc3c2)cc1OC`, the AC40 was > 26 µM (inactive).

For the compound `CN(C)c1nc(N)nc(CSc2nnnn2-c2ccc(F)cc2)n1`, the AC40 was > 26 µM (inactive).

With `Cn1c(CCCOc2ccc(Cl)cc2Cl)nnc1SCC(=O)Nc1cccc(F)c1`, the AC40 was 20.2 µM.

As for `N#C/C(=C\c1ccc(OCc2ccc(Cl)cc2)cc1)C(=O)Nc1cccc(C(=O)O)c1`, the AC40 was 2.68 µM.

Regarding `CCCCc1cc(O)c(CCCC)c(O)c1`, the AC40 was 4.58 µM.

With `N#Cc1ccccc1COC(=O)c1cc(=O)c2ccccc2o1`, the AC40 is 26 µM.

In the case of `COc1ccc(-c2c(C)c3cc(O)ccc3oc2=O)cc1OC`, the AC40 is > 26 µM (inactive).

With `CCOC(=O)c1c(-c2ccc(C)o2)csc1NC(=O)CSc1nncs1`, the AC40 is 13.6 µM.

Turning to `CCOc1ncccc1C(=O)NCCc1c[nH]c2ccccc12`, the AC40 is > 26 µM (inactive).

In the case of `O=C(NCc1cccc(F)c1)c1noc2c1CCCC2`, the AC40 was 6.03 µM.

As for `NC(=O)c1c(NC(=O)Cc2ccccc2)sc2c1CCN(Cc1ccccc1)C2`, the AC40 was > 26 µM (inactive).

Turning to `OC(CNCc1cccc(Cl)c1)c1ccccc1` (stereo not given), the AC40 was 24.8 µM.

As to `CN(c1ccccc1)c1nc(N)c([N+](=O)[O-])c(N2CCCCCC2)n1`, the AC40 was > 26 µM (inactive).

`O=C(NCC1CCCO1)c1nn2c(C(F)(F)F)cc(-c3cc(Br)cs3)nc2c1Br` (stereo not given): the AC40 was > 26 µM (inactive).

Consider `COC(=O)C(C)Sc1nc2c(c(=O)n(C)c(=O)n2C)n1CCC(C)C` (stereo not given), for which the AC40 was > 26 µM (inactive).

In the case of `O=C1/C(=C/c2ccc([N+](=O)[O-])cc2)Oc2cc(O)ccc21`, the AC40 is > 26 µM (inactive).

For the compound `Cc1ccc(/C=C2\Oc3cc(OC(=O)N4CCOCC4)ccc3C2=O)cc1`, the AC40 was > 26 µM (inactive).

Turning to `CCCCCNC(=O)C1CCC(Cn2c(=S)[nH]c3ccccc3c2=O)CC1` (stereo not given), the AC40 is > 26 µM (inactive).

For `COc1cc(NC(=O)Cc2cccs2)ccc1-n1cnnn1`, the AC40 was > 26 µM (inactive).

As for `Nn1cnnc1N/N=C/c1cc([N+](=O)[O-])c(Cl)cc1Cl`, the AC40 was > 26 µM (inactive).

For `c1ccc(CCc2ccncc2)cc1`, the AC40 was > 26 µM (inactive).

Regarding `Cc1nnc(Sc2nc3c(c(=O)n(C)c(=O)n3C)n2Cc2ccccc2Cl)s1`, the AC40 is > 26 µM (inactive).

With `CCOC(=O)C(CCOc1cccc(CC)c1)C(=O)OCC`, the AC40 was > 26 µM (inactive).

`S=C(Nc1ccccc1)Nc1ccc(Cl)cn1`: the AC40 was 21 µM.

On to `CC1(C)CC(=O)C=C(NC2=CC3OC(c4ccccc4)OCC3OC2=O)C1` (stereo not given), for which the AC40 is 13.2 µM.

For `Cc1cccc(OCC(=O)Nc2cc(C)ccc2O)c1`, the AC40 is > 26 µM (inactive).

Regarding `COC(=O)C1CCN(C(=O)COC(=O)c2ccc(OC)c(S(=O)(=O)N3CCCc4ccccc43)c2)CC1`, the AC40 was 9.15 µM.

`CN(NC1OC(=O)c2ccccc21)c1ncc(Cl)cc1C(F)(F)F` (stereo not given): the AC40 is > 26 µM (inactive).

As to `Cc1cc2c(cc1C)-c1nnnn1C(C)(C)C2`, the AC40 was > 26 µM (inactive).

With `O=C1/C(=C\c2ccc(Br)o2)Cc2ccccc21`, the AC40 was 10.7 µM.

`Nc1nnc(SCC(=O)Nc2cccc3ccccc23)s1`: the AC40 is > 26 µM (inactive).

As for `COc1cnn(-c2cc(Oc3ccc(C)cc3)ncn2)c(=O)c1Cl`, the AC40 is > 26 µM (inactive).

As to `Oc1ccc(NC(=S)Nc2ccccc2)cc1`, the AC40 is > 26 µM (inactive).

`Cc1nn(C(CC(=O)O)C(=O)O)c(C)c1Br` (stereo not given): the AC40 was > 26 µM (inactive).

For the compound `O=[N+]([O-])c1ccc(S(=O)(=O)N2CCSC2c2ccco2)cc1` (stereo not given), the AC40 is > 26 µM (inactive).
